Results published in patent US11590110B2, “Compositions and methods for reactivating latent immunodeficiency virus using a GSK-3 inhibitor” (priority 2017, dated 2023).
Like-named read-outs stand apart in the source and are kept apart here.

What was measured:
[1] = tested on: patient-derived CD4+ T cells; test: Example 2: viability of patient-derived CD4+ T cells (Zombie Violet, flow cytometry); format: cell-based, human; details: 48 h incubation
Description: Following treatment with Tideglusib, the CD4^+ T cells were spun down and stained with the cell-death marker Zombie Violet (BioLegend). Briefly, cells were harvested 48 hours after LRA treatment, incubated with the Zombie dye for 15 minutes at room temperature, than washed and fixed with 1% PFA for 30 minutes; then washed again and analyzed via flow cytometer. Percentage of live (Zombie negative (−)) T Cells (CD3+) was normalized to the DMSO-treated control (DMSO or “untreated”=1).

[2] = tested on: latent HIV in CD4+ T cells of HIV-infected patients on suppressive anti-retroviral therapy; test: Example 7: reversal of HIV latency in patient CD4+ T cells, extracellular viral RNA by digital droplet PCR
[3] = tested on: CD8+ T cells; test: Example 5: CD8 T-cell viability and cytotoxic effector functions; format: cell-based, human
Description: After drug treatment, human PBMCs were cultured in complete RPMI in the presence of CD107a-BV650 (1:50, 328637, BioLegend) or CD107a-FITC antibodies (1:50, 555800, BD Bioscience) and PMA/ionomycin (50 ng/ml and 1 uM) dor 3.5 hours, adding Brefeldin A and Monensin (eBioscience) for the last hour. Cells were subsequently stained for viability using the viability dyes eFluor 506, (eBioscience) according to the provided protocol. After surface marker staining with the following antibodies (all at 1:100 dilution): CD3-APC-H7 (560176; BD Biosciences), CD8-V450 (560347; BD Biosciences), CD45RA-APC (17-0458; eBioscience), and CCR7-PE-Cy7 (557648; BD Biosciences), cells were permeabilized and fixed using the Foxp3/Transcription Factor Fixation/Permeabilization Concentrate and Diluent kit (eBioscience). Intracellular staining was performed with IFN-γ-PerCP-Cy5.5 antibody (1:100, 560704, BD Bioscience) in FOXP3 perm/wash buffer for 1 h at 4° C. After washing and fixation of the cells in 1% paraformaldehyde/PBS, cells were analyzed by flow cytometry. Final data stems from having gated on CD8hi- and CD8lo-expressing T cells.

[4] = cited from earlier work
[5] = tested on: AKT/mTOR pathway in CD4+ T cells; test: Example 5: RNA and protein expression profiling with nanoString; format: cell-based, human; details: 1 μM
Description: Quantitative RNA and protein expression data were generated using the nCounter Vantage 3D Solid Tumor Assay and the nCounter SPRINT profiler (NanoString Technologies), comprising 770 RNA and 30 protein targets including positive and negative controls. 1-3 million negatively selected primary CD4^+ T cells purified from HIV-positive donors on suppressive ART, as described above, were treated with 1 μM tideglusib or left untreated (DMSO control). […]. For RNA samples, an additional RNA purification step (Qiagen miRNeasy Mini Kit) was necessary to ensure an appropriate sample input for the nCounter assay. A total of at least 30 ng RNA was used for each sample. Otherwise, samples were processed according to the manufacturer's instructions. RNA and protein expression values were normalized and analyzed using the nSolver Analysis Software 4.0 and the add-on Advanced Analysis Software 2.0.115 (NanoString Technologies). Normalization genes for each sample were automatically selected by the software based on the geNorm algorithm (ref vandesompele). Biological replicates were then grouped according to treatment and the differential expression of each analyte-type (RNA or protein target) was determined in comparison to the untreated condition by considering inter-donor differences as confounding variables. Based on the differential expression of each gene, pre-defined gene sets by nanoString, representing different pathways included in this assay, were analyzed by calculating global significance scores for each gene set within each treatment, as follows: […]

[6] = tested on: latent HIV-1 in blood CD4+ T cells from infected individuals on suppressive ART; format: cell-based
[7] = tested on: CD4+ T cells; test: Example 5: cytokines release assay (V-PLEX pro-inflammatory panel); format: cell-based, human; details: 48 hours; culture supernatant of CD4+ T cells
Description: Supernatant was collected from the treated cell cultures described above and stored at −80° C. for later analysis. Supernatant cytokine levels were determined using a V-PLEX Proinflammatory Panel 1 (human) Kit (#K15049D-1) and a V-PLEX IL-17A Gen. B (human) (#K151WMD) from Meso Scale Discovery, following the manufacturer's protocol. The assay was done on undiluted supernatant samples in order to increase the sensitivity of the assay.

[8] = tested on: patient CD4+ T cells; test: Example 7: viability of patient CD4+ T cells, Cell-titer blue; details: 48 h
[9] = also in the brain; cited from earlier work
[10] = tested on: CD4+ T cells; test: Example 5: lactate production analysis; format: cell-based, human; details: 24 hours of treatment
Description: Subsequently, media of the treated samples were tested for production of L-lactated using a Glycolysis Cell-Based Assay Kit (Cayman Chemical). This test measures the quantity of formazan, an artificial chromogenic dye that results from the reduction of tetrazolium salts in the presence of NADH in the culture media. Colored formazan absorbs between 490 and 520 nm and can be detected by a plate reader. Since lactate dehydrogenase catalyzes the reaction between NAD+ and lactate, yielding pyruvate and NADH, which directly reduces the tetrazolium salt, the quantity of formazan produced is proportional to the quantity of L-lactate in the culture medium, and is thus an indirect measurement of glycolysis. In order to determine specific L-Lactate concentration, a standard curve was obtained analyzing absorbance of known concentration of L-lactate as indicated in the manufacturer's protocol.

[11] = tested on: primary CD4+ T cells isolated from fresh human tonsils; test: CD69 transcripts in primary CD4+ T cells from fresh human tonsils; format: cell-based; details: 2-day treatment
[12] = tested on: NF-κB (p65); test: Example 5: NF-κB (p65) binding with target DNA sequences, ELISA; format: cell-based, human; details: 1 μM
Description: To determine the specific NF-κB p65 DNA binding activity of treated CD4^+ T cells, an aliquot of the same nuclear extracts used for the p65/TBP western blots were submitted to the Transcription Factor Assay kit (Abcam, catalogue no. ab133112). Following the manufactures instructions sequentially, nuclear extracts were incubated in the TFA 96 well plate coated with double strand DNA NF-κB oligos. The wells were washed then incubated with primary anti-p65 antibody that is then detected by incubation with HRP conjugated secondary antibody. Developing reagents are added and absorbance is read at 450 nm. The level of absorbance indicates the DNA binding activity. For each donor experiment, binding specificity controls include a NF-κB competitor dsDNA control well and a non-specific binding control well. The assay was performed on 3 different donor samples.

[13] = tested on: CD4+ T cells; test: Example 5: CD4+ T cell viability, Cell Titer Blue assay; format: cell-based, human; details: 48 hours; SB-216763 and tideglusib 10/100/1000 nM; bryostatin-1 10 nM
Description: 25 μl from each well/treatment were incubated with Cell Titer Blue reagent (Promega) for 3 to 4 hours at 37° C. The assay is based on the ability of living cells to convert a redox dye (resazurin) into a fluorescent end product (resorufin). Colorimetric analysis of treated cells was done with a Perkin Elmer EnSpire 2300 Multimode plate reader set to detect fluorescence (Ex:579 nm/Em:584 nm).

[14] = pre-treatment 1 μM 48 hours, then PMA/ionomycin

## O=c1sn(-c2cccc3ccccc23)c(=O)n1Cc1ccccc1 [Tideglusib, 4-benzyl-2-(naphthalen-1-yl)-1,2,4-thiadiazolidine-3,5-dione]
[1]
  percentage of viable CD4+ T cells vs untreated control: Substantially all of the cells remained viable
[2]; at equivalent doses
  latency reversing activity, in words: comparable activity
[2]; highest concentration
  induction of latent virus production (virus-associated RNA over DMSO-treated control): ~40 fold
[2]; highest dose
  subjects that did not respond: 1 of 8
[3]; 48 hours
  viability of CD8+ T cells: did not reduce viability
[3]; [14]
  IFN-γ production in CD8+ T cells: increase in IFN-γ production
  surface expression of CD107a in CD8+ T cells: increased surface expression of CD107a
[4]
  side effects / tolerability in humans: safe (i.e., non-toxic) and well tolerated in humans
[4]; listed as tideglusib
  side effects / tolerability in humans: very low incidence of side-effects
[4]; prolonged treatment
  moderate, asymptomatic and fully reversible increase of transaminase, share of cases: 30%
[5]; 15 minutes post-treatment
  activation of the AKT/mTOR pathway (phosphorylation of GSK-3β, AKT and TSC2): non-significant activation
[5]; 1 hour
  activating phosphorylation of p70S6K on T389: significant phosphorylation values
  inhibiting phosphorylation of GSK-3β on S9: significant phosphorylation values
[5]; 6 hours
  inhibiting phosphorylation of TSC2 on T1426: statistically-relevant phosphorylation
  phosphorylation of AKT on S473: statistically-relevant phosphorylation
[5]; after 1 and 6 hours
  overall transcriptome changes, pathways (700 transcripts): activation of the mitogen-activated protein kinase (MAPK), PI3K, Ras, Wnt and TGFβ pathways and deactivation of the Hedgehog, Notch and Janus kinases (JAK) and signal transducer and activator of transcription proteins (STAT)-pathways
[6]; 1 μM tideglusib vs 10 nM bryostatin-1
  release of virus-associated HIV-1 mRNA relative to bryostatin-1, by median values: twofold more
[6]; 1 μM, 48 hours, relative to untreated control
  virus-associated HIV-1 mRNA, median value: 10.3 fold
[7]
  production and release of pro-inflammatory cytokines: does not induce T cell activation or cytokine production
[8]
  toxicity based on cell-titer blue testing: Neither tideglusib nor SB216763 induced toxicity
[9]
  tissue-permeability: high tissue-permeability also in the brain
[10]
  L-lactate in the culture media: did not result in an increase of L-lactate
[11]
  expression of CD69 transcripts: reduces expression of CD69 transcripts
[12]
  p65/DNA binding: time-dependent increase
[13]
  CD4+ T-cell viability: does not reduce viability
